Source: patent US5439927A, “Imidazoyl-β-oxo-β-benzenepropanethiomide derivative, compositions and method of use thereof” (Mitsubishi Kasei Corporation, priority 1991, dated 1995)

Key:
[1] = system: aorta thoracica of a Wistar rat; test: Suppression of 20 mM K shrinkage (contraction) of rat aorta thoracica (Test Example 1); conditions: Klebs-Heneleit solution, 37° C., 20 mMK, read-out: Rat aorta IC30 20 mMK (dose of a drug suppressing 30% of 20 mMK shrinkage)
Description: The aorta thoracica of a Wistar rat was resected and then suspended in a Klebs-Heneleit solution kept at 37° C., according to the Weir and Weston's method (Br. J. Pharmac., 88, 121, (1986)), to determine the dose (IC30 20 mMK) of a drug suppressing 30% of 20 mMK shrinkage. As control, the same test done about the known compound A described in Bull. Soc. Chem. Fr., 1975, 829.

[2] = system: spontaneous hypertensive rats (OKAMOTO-AOKI strain); test: Blood pressure lowering in spontaneous hypertensive rats after oral administration (Test Example 2); assay type: in vivo; conditions: 2 hours after the dosing, direct method
Description: At a dose of 3 mg/kg or 10 mg/kg, the compound of the present invention was orally administered to spontaneous hypertensive rats (OKAMOTO-AOKI strain) with an average blood pressure of 150 mmHg or more. According to the direct method described by Nakano H. and Takayanagi K., Japanese Journal of Pharmacology, Vol. 25, 25 (1975), blood pressure and cardiac output were measured. Using the compound A used in the Test Example 1 as control, the same test was done.

| Structure (SMILES) | IC30 [1] [µM] | Mean blood pressure: Blood pressure decrease ([2]; 10 mg/kg) [mmHg] | Mean blood pressure: Blood pressure decrease ([2]; 3 mg/kg) [mmHg] |
| --- | --- | --- | --- |
| CNC(=S)C(C)(C)C(=O)c1ccc(C#N)cc1 [Compound 224] | 5 | 38.8 |  |
| CNC(=S)C(C)(C)C(=O)c1ccc(-n2ccnc2)cc1 [Compound 226] | 13 | 35.9 |  |
| CNC(=S)C(C)(C)C(=O)c1cccc(-n2ccnc2)c1 [Compound 265] | 0.62 |  | 76.5 |
| CNC(=S)C(C)(C)C(=O)c1ccccc1-n1ccnc1 [Compound 302] |  | 51.9 |  |
| CNC(=S)C1(C(=O)c2ccc(-n3ccnc3)cc2)CC1 [Compound 342] |  | 31.2 |  |
| CNC(=S)C1(C(=O)c2ccc(-n3ccnc3)cc2)CCC1 [Compound 356, 4-(1-imidazolyl)-N-methyl-β-oxo-α,α-trimethylenebenzenepropanethioamide] | 2.1 | 58.9 |  |
| CNC(=S)C1(C(=O)c2ccc(-n3ccnc3C)cc2)CCC1 [Compound 357] | 0.18 | 78.4 |  |
| CNC(=S)C(C)(C)C(=O)c1ccccc1 [Compound A, N, α, α-trimethyl-β-oxobenzenepropanethioamide, reference compound] | 13.6 | 14.1 |  |
